These results are taken from ChEMBL document CHEMBL5356956, “Optimizing and characterizing 4-methyl substituted pyrazol-3-carboxamides leading to the peripheral cannabinoid 1 receptor inverse agonist TM38837” (Bioorg Med Chem Lett, 2024).

The nature of data set [1]: Solubility of compound. Type of data set: physicochemical.
Data set [2] can be described thus: Clearance in rat hepatocytes assessed per million cells. Type of data set: ADME, cell-based, Hepatocyte.
The nature of data set [3]: Lipophilicity, logD of compound by chromatographic analysis. The format is physicochemical.
A further data set deals with CYP2C9 (Homo sapiens, UniProt P11712). As to the kind of experiment: Inhibition of CYP2C9 (unknown origin) at 10 uM relative to control. The format is ADME.
Data set [4] addresses T1, Cannabinoid receptor 1 (Homo sapiens, UniProt P21554). The experiment in a line: Inverse agonist activity at human CB1 receptor expressed in CHO-K1 cell membrane by GTP-gamma-S assay. The format is functional, cell membranes.
For data set [5], the target named is T1, Cannabinoid receptor 1. The experiment in a line: Inverse agonist activity at human CB1 receptor expressed in African green monkey COS7 cells co-expressing G-protein in presence of CP55940 by IP3 assay. The format is functional, cell membranes, Membrane.
The next data set addresses hERG (Homo sapiens, UniProt Q12809). The experiment in a line: Inhibition of hERG at 10 uM by patch clamp assay relative to control. The format is toxicity.
Data set [6] has as its target Voltage-gated inwardly rectifying potassium channel KCNH2 (Homo sapiens, UniProt Q12809). As to the kind of experiment: Inhibition of hERG by patch clamp assay. The format is toxicity. (In general: Block of hERG is tested as a sign of cardiac risk.)
For another data set, the target named is Cannabinoid receptor 2 (Homo sapiens, UniProt P34972). The experiment in a line: Inverse agonist activity at human CB2 receptor expressed in CHO-K1 cell membrane in presence of CP55940 by GTP-gamma-S assay. Type of data set: functional, cell membranes.
A short description of data set [7]: Drug concentration in DIO mouse brain at 10 mg/kg, po measured for 24 hrs. Type of data set: ADME, organism-based. To be noted: brain, read-out: Drug uptake.
Data set [8] can be described thus: Efflux ratio of permeability in human Caco-2 cells. The format is ADME, cell-based. (In general: Caco-2 monolayers are a common model of the intestinal barrier.)
Data set [9] can be described thus: Drug concentration in DIO mouse adipose tissue at 10 mg/kg, po measured for 6 hrs. Type of data set: ADME, organism-based. To be noted: read-out: Drug uptake.
Data set [10] in a line: Drug concentration in DIO mouse brain at 10 mg/kg, po measured for 6 hrs relative to plasma concentration. Type of data set: ADME, organism-based.
Data set [11] in a line: Drug concentration in DIO mouse plasma at 10 mg/kg, po measured for 6 hrs. Type of data set: ADME, organism-based.
For data set [12], the target named is G-protein coupled receptor 55 (Homo sapiens) (UniProt Q9Y2T6). The experiment in a line: Inhibition of GPR55 (unknown origin) at 1 uM relative to control.
Data set [13] in a line: AUC (infinity) in NMRI mouse at 30 mg/kg, po. To be noted: in vivo. Type of data set: ADME, organism-based. The arrangement: dose 30 mg/kg, route po.
Data set [14] can be described thus: In vivo inverse agonist activity at CB1 receptor in DIO mouse assessed as efficacy at 10 mg/kg, po measured after 6 hrs. The format is functional.
The nature of data set [15]: Half life in NMRI mouse at 30 mg/kg, po. Type of data set: ADME, organism-based. To be noted: in vivo.
The nature of data set [16]: Cmax in NMRI mouse at 10 mg/kg, po. Type of data set: ADME, organism-based. The arrangement: dose 10 mg/kg, route po. Conditions: in vivo.
Another data set deals with Liver. The experiment in a line: In vivo inhibition of CB1 receptor in liver of lean C57BL/6J mouse by autoradiography. The format is functional, organism-based.
Data set [17] has as its target T2, Glucose-dependent insulinotropic receptor (Homo sapiens) (UniProt Q8TDV5).
T2 sequence (whole entry): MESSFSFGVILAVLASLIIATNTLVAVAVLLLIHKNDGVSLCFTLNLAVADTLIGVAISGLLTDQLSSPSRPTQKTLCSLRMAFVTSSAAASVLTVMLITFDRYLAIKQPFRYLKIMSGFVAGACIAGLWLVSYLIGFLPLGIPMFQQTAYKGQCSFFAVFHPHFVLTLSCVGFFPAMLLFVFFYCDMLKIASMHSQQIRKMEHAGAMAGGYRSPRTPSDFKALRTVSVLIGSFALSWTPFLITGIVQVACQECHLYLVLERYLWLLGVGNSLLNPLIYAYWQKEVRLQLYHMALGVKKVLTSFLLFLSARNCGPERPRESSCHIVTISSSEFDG
The experiment in a line: Inhibition of GPR119 (unknown origin) at 1 uM relative to control.

Data set [18] in a line: Clearance in NMRI mouse at 2 mg/kg, iv. Type of data set: ADME, organism-based. To be noted: in vivo.
Data set [19] can be described thus: Cmax in NMRI mouse at 30 mg/kg, po. The format is ADME, organism-based. Conditions: in vivo. Also noted: dose 30 mg/kg, route po.
Data set [20] can be described thus: Protein binding in NMRI mouse plasma. Type of data set: ADME, cell-free. Conditions: read-out: PPB.
The nature of data set [21]: AUC (infinity) in NMRI mouse at 2 mg/kg, iv. Type of data set: ADME, organism-based. The arrangement: dose 2 mg/kg, route iv. Conditions: in vivo.
Data set [22] is described as follows: Tmax in NMRI mouse at 10 mg/kg, po. Type of data set: ADME, organism-based. Conditions: in vivo.
Data set [23] can be described thus: Drug concentration in DIO mouse adipose tissue assessed as fold increase at 10 mg/kg, po measured for 6 hrs relative to plasma concentration. The format is ADME, organism-based. To be noted: read-out: FC.
Data set [24] is described as follows: Oral bioavailability in NMRI mouse at 30 mg/kg. Type of data set: ADME, organism-based. Conditions: in vivo.
The nature of data set [25]: Volume of distribution at steady state in NMRI mouse at 2 mg/kg, iv. The format is ADME, organism-based. To be noted: in vivo, read-out: Vdss.
Data set [26] in a line: Subchronic toxicity in DIO mouse assessed as reduction in body weight at 10 mg/kg, po measured after 7 days. Type of data set: organism-based. The arrangement: scale not given: the % may be the effect or the level left. Conditions: in vivo, 168 h, time 7 day.
Data set [27] in a line: Tmax in NMRI mouse at 30 mg/kg, po. To be noted: in vivo. Type of data set: ADME, organism-based.
A short description of data set [28]: Half life in NMRI mouse at 2 mg/kg, iv. Type of data set: ADME, organism-based. Conditions: in vivo.
Data set [29] in a line: AUC (infinity) in NMRI mouse at 10 mg/kg, po. The arrangement: dose 10 mg/kg, route po. Conditions: in vivo. Type of data set: ADME, organism-based.
A short description of data set [30]: Half life in NMRI mouse at 10 mg/kg, po. Type of data set: ADME, organism-based. To be noted: in vivo.
A short description of data set [31]: Drug concentration in DIO mouse liver at 10 mg/kg, po measured for 6 hrs. The format is ADME, organism-based. To be noted: read-out: Drug uptake.
Data set [32] can be described thus: Oral bioavailability in NMRI mouse at 10 mg/kg. The format is ADME, organism-based. To be noted: in vivo.
The nature of data set [33]: Drug concentration in NMRI mouse brain relative to plasma concentration. The format is ADME, tissue-based.
Data set [34] concerns the target T1, Cannabinoid receptor 1. As to the kind of experiment: Antagonist activity at human CB1 receptor expressed in CHO-K1 cell membrane in presence of CP55940 by GTP-gamma-S assay. Type of data set: functional, cell membranes.
Data set [35] in a line: Drug uptake in brain of lean C57BL/6J mouse by autoradiography. The format is ADME, tissue-based. To be noted: in vivo.
Data set [36] in a line: Drug concentration in DIO mouse brain at 10 mg/kg, po measured for 6 hrs. Conditions: read-out: Drug uptake. The format is ADME, organism-based.

Converted amounts (≈) assume the structure as drawn. The source made the active and inactive calls. No cut-off for these calls is given here. Where only a bound is given, the exact number is not on record here.

Cannabinoid receptor 2, sequence (P34972 whole entry): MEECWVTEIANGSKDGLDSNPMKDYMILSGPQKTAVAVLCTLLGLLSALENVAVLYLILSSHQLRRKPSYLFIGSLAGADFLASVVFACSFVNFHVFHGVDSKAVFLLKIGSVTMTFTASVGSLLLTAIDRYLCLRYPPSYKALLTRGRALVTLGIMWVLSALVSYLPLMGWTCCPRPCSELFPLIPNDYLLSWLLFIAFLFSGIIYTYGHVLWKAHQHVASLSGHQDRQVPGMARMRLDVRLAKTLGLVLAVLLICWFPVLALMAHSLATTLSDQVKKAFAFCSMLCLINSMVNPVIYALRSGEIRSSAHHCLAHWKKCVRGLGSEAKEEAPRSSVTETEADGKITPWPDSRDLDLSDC
T1 sequence (P21554 whole entry): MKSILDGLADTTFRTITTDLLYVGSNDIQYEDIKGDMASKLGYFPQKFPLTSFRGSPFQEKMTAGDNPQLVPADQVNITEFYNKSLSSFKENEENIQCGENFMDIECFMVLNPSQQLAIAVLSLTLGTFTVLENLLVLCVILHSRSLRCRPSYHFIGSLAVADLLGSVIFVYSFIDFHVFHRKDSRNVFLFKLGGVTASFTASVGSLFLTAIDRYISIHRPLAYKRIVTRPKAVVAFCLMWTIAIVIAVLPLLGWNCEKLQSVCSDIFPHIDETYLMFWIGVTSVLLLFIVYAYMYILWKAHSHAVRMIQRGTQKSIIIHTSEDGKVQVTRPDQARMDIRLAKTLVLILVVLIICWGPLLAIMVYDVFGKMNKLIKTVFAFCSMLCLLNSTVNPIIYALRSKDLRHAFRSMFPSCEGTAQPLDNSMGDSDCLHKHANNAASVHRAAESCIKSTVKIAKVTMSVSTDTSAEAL
CYP2C9, sequence (P11712 whole entry): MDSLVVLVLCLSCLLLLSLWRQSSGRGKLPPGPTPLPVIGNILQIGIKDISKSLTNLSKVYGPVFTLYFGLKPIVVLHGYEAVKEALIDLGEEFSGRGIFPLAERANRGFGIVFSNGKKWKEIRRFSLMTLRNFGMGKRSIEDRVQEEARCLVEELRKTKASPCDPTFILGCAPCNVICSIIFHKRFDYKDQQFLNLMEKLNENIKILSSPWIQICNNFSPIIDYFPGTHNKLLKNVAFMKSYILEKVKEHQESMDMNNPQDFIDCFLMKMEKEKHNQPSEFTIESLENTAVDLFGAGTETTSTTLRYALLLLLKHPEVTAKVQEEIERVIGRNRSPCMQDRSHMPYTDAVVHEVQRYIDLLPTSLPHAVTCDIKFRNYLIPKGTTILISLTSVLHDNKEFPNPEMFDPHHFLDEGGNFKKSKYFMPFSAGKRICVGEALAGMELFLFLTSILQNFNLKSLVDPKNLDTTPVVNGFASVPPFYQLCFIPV
hERG, sequence (Q12809 whole entry): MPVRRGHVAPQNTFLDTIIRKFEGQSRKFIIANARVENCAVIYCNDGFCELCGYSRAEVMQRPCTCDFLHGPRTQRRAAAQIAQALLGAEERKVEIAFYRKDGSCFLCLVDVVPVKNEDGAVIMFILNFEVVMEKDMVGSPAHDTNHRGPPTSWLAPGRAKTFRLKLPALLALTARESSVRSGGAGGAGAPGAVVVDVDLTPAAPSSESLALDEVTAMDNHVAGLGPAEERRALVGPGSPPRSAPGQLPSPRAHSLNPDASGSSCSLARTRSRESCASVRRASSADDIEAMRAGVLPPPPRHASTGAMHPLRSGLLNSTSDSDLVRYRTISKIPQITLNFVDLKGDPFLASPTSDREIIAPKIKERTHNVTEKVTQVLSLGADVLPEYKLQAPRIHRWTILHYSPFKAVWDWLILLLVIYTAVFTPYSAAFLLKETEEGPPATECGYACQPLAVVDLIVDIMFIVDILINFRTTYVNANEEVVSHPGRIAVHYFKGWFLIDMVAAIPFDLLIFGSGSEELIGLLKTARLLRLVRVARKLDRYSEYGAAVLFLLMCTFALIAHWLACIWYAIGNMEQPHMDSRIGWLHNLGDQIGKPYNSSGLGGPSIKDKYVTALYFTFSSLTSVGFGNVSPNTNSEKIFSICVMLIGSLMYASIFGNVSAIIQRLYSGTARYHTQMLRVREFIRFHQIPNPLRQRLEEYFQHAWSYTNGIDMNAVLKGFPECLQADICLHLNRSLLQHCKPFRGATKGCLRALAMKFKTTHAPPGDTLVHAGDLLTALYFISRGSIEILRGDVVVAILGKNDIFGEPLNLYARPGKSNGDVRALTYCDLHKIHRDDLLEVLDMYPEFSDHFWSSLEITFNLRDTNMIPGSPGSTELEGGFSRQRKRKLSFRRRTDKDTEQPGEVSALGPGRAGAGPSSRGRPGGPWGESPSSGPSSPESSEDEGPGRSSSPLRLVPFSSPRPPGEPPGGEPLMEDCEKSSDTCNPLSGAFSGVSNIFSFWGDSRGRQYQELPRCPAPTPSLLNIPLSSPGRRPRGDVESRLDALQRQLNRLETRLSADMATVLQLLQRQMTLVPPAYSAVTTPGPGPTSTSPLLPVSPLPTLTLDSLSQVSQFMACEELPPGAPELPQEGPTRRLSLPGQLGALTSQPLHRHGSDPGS
G-protein coupled receptor 55 (Homo sapiens), sequence (Q9Y2T6 whole entry): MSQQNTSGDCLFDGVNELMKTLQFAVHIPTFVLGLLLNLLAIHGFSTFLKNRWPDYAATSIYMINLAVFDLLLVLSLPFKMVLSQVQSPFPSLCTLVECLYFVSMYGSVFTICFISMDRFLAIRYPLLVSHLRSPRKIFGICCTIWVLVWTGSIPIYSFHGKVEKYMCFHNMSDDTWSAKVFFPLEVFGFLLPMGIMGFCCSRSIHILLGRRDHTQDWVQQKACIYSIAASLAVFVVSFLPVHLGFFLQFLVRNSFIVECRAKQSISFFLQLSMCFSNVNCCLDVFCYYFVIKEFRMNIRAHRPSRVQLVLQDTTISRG
Voltage-gated inwardly rectifying potassium channel KCNH2, sequence (Q12809 whole entry): as the sequence (Q12809 whole entry) above

On to `O=C(c1nn(-c2ccccc2Cl)c(-c2ccc(Cl)cc2)c1Cc1nn[nH]n1)N1CCC(Oc2cccc(Cl)c2)CC1`, for which the solubility in data set [1] came out at 201 µM (≈ 122 µg/mL). In [2], the CLH was found to be 15 µL/min/1e6 cells. Besides, the chromatographic logD in data set [3] came out at 2.7. The same compound came in with an inhibition at 10 µM at CYP2C9 of 35%. For the same compound, the IC50 at Cannabinoid receptor 1 [4] amounted to 95 nM; on Cannabinoid receptor 1 [5] it was 24 nM.

Compound `NC(=O)Cc1c(C(=O)N2CCC(O)(c3ccc(F)cc3)CC2)nn(-c2ccccc2Cl)c1-c1ccc(Cl)cc1` showed an inhibition at 10 µM against hERG of 93%. The same compound gave a CLH in [2] of 8 µL/min/1e6 cells. Besides, the IC50 in data set [6] stood at 800 nM; at Cannabinoid receptor 1 [4], 0.45 nM; at Cannabinoid receptor 1 [5], 1.8 nM; on Cannabinoid receptor 2, 7.9 µM.

Consider `C[C@@H](NC(=O)c1nn(-c2ccccc2Cl)c(-c2ccc(Cl)cc2)c1Cc1nn[nH]n1)c1ccc(C(F)(F)F)cc1`, for which the concentration at 24 h in data set [7] is 20 nM. Moreover, the efflux ratio in data set [8] was 1. Also, the concentration at 6 h in [9] came to 1200 nM; in data set [11], 6.5 µM; in data set [31] it was 47 µM; in data set [36], 80 nM. Besides, the results for the Drug uptake in data set [10], in [33] and in data set [35] were 1.3%, ~ 1% and “Active”, respectively. In addition, the solubility in data set [1] amounted to 250 µM (≈ 147 µg/mL). The inhibition in data set [12] and in [17] was < 30% throughout. In [2], this compound gave a CLH of 16 µL/min/1e6 cells. For the same compound, the AUC(0-inf) in data set [13] turned out to be 297 µM·h; in [21], 22 µM·h; in data set [29] it was 104 µM·h. Besides, in data set [3], the chromatographic logD was 2.8. Also, the inhibition at 10 µM against CYP2C9 worked out at 39%. The Efficacy in [14] was determined as 11%. Besides, the half-life in data set [15] is 240 min; in [28], 150 min; in [30], 186 min. Moreover, the half-inhibitory concentration (IC50) on Cannabinoid receptor 1 [4] amounted to 24 nM; at Cannabinoid receptor 1 [5], 3.3 nM; at Cannabinoid receptor 2 it was 4.5 µM; on Cannabinoid receptor 1 [34] it was 6.7 nM. Besides, the Cmax in data set [16] was found to be 13 µM; in [19], 41 µM. Also, in the data set on Liver, the inhibition result is “Active”. Also, in [18], the clearance stood at 2.6 mL/min/kg. In addition, the fraction unbound in [20] was < 0.01. Further, the Tmax in data set [22] and in [27] was 2 h throughout. Also, the Kp at 6 h in data set [23] was 5. Moreover, the bioavailability in data set [24] was 91%; in [32] it was 95%. Also, in data set [25], the Vd was 0.4 L/kg. The Activity in data set [26] was determined as 11.4%.

With `NC(=O)Cc1c(C(=O)N2CCC(O)(c3ccc(F)cn3)CC2)nn(-c2ccccc2Cl)c1-c1ccc(Cl)cc1`, on hERG, the inhibition at 10 µM amounted to 38%. The CLH in data set [2] is 18 µL/min/1e6 cells. The compound further returned an IC50 at Cannabinoid receptor 1 [4] of 1.8 nM.

`O=C(O)Cc1c(C(=O)N2CCC(c3cccc(F)c3)CC2)nn(-c2ccccc2Cl)c1-c1ccc(Cl)cc1` came in with a chromatographic logD in data set [3] of 2.7. Besides, the IC50 was 32 nM on Cannabinoid receptor 1 [4], 2.6 nM at Cannabinoid receptor 1 [5], > 10 µM at Cannabinoid receptor 2 and 8.1 nM on Cannabinoid receptor 1 [34].

The compound `O=C(c1nn(-c2ccccc2Cl)c(-c2ccc(Cl)cc2)c1Cc1nn[nH]n1)N1CCC(Oc2cc(F)cc(F)c2)CC1` came in with a solubility in [1] of 317 µM (≈ 194 µg/mL). In data set [2], this compound gave a CLH of 16 µL/min/1e6 cells. In addition, the chromatographic logD in data set [3] stood at 2.6. At CYP2C9, this compound displayed an inhibition at 10 µM of 32%. The IC50 on Cannabinoid receptor 1 [4] was found to be 69 nM; at Cannabinoid receptor 1 [5], 23 nM.

On to `O=C(c1nn(-c2ccccc2Cl)c(-c2ccc(Cl)cc2)c1Cc1nn[nH]n1)N1CCC(Oc2ccc(F)c(F)c2)CC1`, for which the concentration in solution in data set [1] (solubility) was 421 µM (≈ 257 µg/mL). The same compound returned a CLH in [2] of 45 µL/min/1e6 cells. The compound also yielded a chromatographic logD in [3] of 2.5. Also, 10 µM produced 0% inhibition against CYP2C9. Moreover, the IC50 on Cannabinoid receptor 1 [4] was determined as 80 nM; at Cannabinoid receptor 1 [5], 35 nM. Further, in data set [26], the Activity is listed as < 2%.

By solubility is commonly meant how much of the substance goes into solution per volume. Broadly, the chromatographic logD is a lipophilicity value derived from retention on a column. The inhibition is the relative decrease from the control value, in per cent. One may read the IC50 as the concentration that inhibits the measured activity by half. In general, efflux ratio refers to a quotient of directional permeabilities that is used to spot active efflux. In general, AUC(0-inf) refers to the area under the concentration-time curve extrapolated to infinity. The half-life is how long it takes for the measured level to halve. What is called Cmax is the peak of the concentration-time curve. Usually clearance stands for a measure of how efficiently the substance is removed, as volume per time. The Tmax is the time from dosing to the highest level. What is called bioavailability is dose-corrected exposure relative to a reference, in per cent.
